The source of these data is ChEMBL document CHEMBL1136683, “Potent and selective aggrecanase inhibitors containing cyclic P1 substituents” (Bioorg Med Chem Lett, 2003).

A value given as a limit tells only on which side of the number the result lay.

Data set [1] can be described thus: Inhibition of bovine aggrecanase. Also on record: species or system Bos taurus.
Data set [2] has as its target Matrix metalloproteinase-9 (Homo sapiens, UniProt P14780). The experiment in a line: Affinity for Matrix metalloprotease-9 (MMP-9).
Data set [3] in a line: Bioavailability after peroral administration (1 mg/kg) was determined in dog. The conditions noted are these: in vivo, po. It counts as ADME, organism-based, Canis lupus familiaris.
Data set [4] in a line: Tmax after peroral administration (10 mg/kg) was determined in rat. Format: ADME, organism-based. The settings on record: in vivo, po.
Data set [5] in a line: Vss after intravenous administration (5.0 mg/kg) was determined in rat. Format: ADME, organism-based. The conditions noted are these: in vivo, read-out: Vss.
Data set [6] can be described thus: Systemic clearance after intravenous administration (5.0 mg/kg) was determined in rat. The conditions noted are these: in vivo. Format: ADME, organism-based.
The nature of data set [7]: Tmax after peroral administration (1 mg/kg) was determined in dog. Format: ADME, organism-based, Canis lupus familiaris. The conditions noted are these: in vivo, po.
Data set [8] in a line: Systemic clearance after intravenous administration (0.5 mg/kg) was determined in dog. It counts as ADME, organism-based, Canis lupus familiaris. The settings on record: in vivo.
Data set [9] in a line: Vss after intravenous administration (0.5 mg/kg) was determined in dog. Format: ADME, organism-based, Canis lupus familiaris. The settings on record: in vivo, read-out: Vss.
The nature of data set [10]: Half life time after intravenous administration (0.5 mg/kg) was determined in dog. Format: ADME, organism-based, Canis lupus familiaris. The settings on record: in vivo.
Data set [11] in a line: Half life time after intravenous administration (5.0 mg/kg) was determined in rat. The settings on record: in vivo. It counts as ADME, organism-based.
Data set [12] in a line: Bioavailability after peroral administration (10 mg/kg) was determined in rat. It counts as ADME, organism-based. The conditions noted are these: in vivo, po.

Chain of Matrix metalloproteinase-9 (P14780 whole entry): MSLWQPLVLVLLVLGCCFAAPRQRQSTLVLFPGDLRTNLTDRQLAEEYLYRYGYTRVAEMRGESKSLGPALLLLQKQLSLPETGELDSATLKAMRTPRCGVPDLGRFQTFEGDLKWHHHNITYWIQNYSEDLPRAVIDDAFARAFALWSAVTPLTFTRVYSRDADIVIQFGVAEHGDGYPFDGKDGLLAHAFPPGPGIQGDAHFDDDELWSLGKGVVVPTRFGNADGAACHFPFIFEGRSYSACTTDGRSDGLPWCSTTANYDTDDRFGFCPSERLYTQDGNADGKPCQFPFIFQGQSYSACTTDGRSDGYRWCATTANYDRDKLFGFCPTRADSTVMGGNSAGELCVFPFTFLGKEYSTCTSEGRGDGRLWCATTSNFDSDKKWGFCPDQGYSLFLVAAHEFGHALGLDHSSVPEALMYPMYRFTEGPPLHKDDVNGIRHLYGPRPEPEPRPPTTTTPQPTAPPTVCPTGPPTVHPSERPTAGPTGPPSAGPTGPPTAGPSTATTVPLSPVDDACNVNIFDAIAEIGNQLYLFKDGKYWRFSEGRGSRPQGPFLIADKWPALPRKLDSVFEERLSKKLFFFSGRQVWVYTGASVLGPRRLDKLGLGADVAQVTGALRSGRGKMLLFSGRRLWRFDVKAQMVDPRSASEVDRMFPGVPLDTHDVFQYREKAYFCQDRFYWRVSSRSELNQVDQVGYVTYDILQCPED

In general, IC50 refers to the point on the concentration scale where inhibition reaches its midpoint. Higher therefore signals weaker potency in that assay. A word on the Ki: it is a measure of affinity in units of concentration, obtained from inhibition or displacement. Regarding `CN1CCC([C@H](C(=O)NO)[C@@H](Cc2cccc(O)c2)C(=O)N[C@H]2c3ccccc3C[C@H]2O)CC1`, the IC50 in data set [1] is 210 nM. The same compound had a Ki in data set [2] greater than 2130 nM.
`O=C(NO)[C@@H](NCC1CC1)[C@@H](Cc1cccc(O)c1)C(=O)N[C@H]1c2ccccc2C[C@H]1O` had an IC50 in [1] of 12 nM.
`CS(=O)(=O)N1CCC([C@H](C(=O)NO)[C@@H](Cc2cccc(O)c2)C(=O)N[C@H]2c3ccccc3C[C@H]2O)CC1`: the IC50 in data set [1] was 3 nM. The Ki in data set [2] stood at 2100 nM.
As usually defined, the bioavailability is the share of a dose that reaches the circulation, judged against a reference dose that is usually intravenous. A low value points to poor availability. As a reminder, the Tmax is the time at which the peak concentration occurs. A word on the clearance: it is a measure of how efficiently the substance is removed, as volume per time. Read a low clearance as inefficient removal. By half-life is commonly meant how long it takes for the measured level to halve. Read a low half-life as fast loss. `O=C(N[C@H]1c2ccccc2C[C@H]1O)[C@H](Cc1cccc(O)c1)[C@@H](C(=O)NO)C1CCNCC1`: the bioavailability in data set [3] came to 20%; in data set [12], 1%. For the same compound, the values for the Tmax in data set [4] and in [7] were 1.5 h and 4.3 h, respectively. The Vd in [5] worked out at 0.3 L/kg; in [9], 0.2 L/kg. In addition, the clearance in data set [6] was 8.33 mL/min/kg; in data set [8], 1.67 mL/min/kg. Besides, the half-life was 3.8 h in data set [10] and 4 h in data set [11]. Further, the IC50 in data set [1] was 28 nM. The affinity in data set [2], expressed as Ki, was 4000 nM.
The compound `O=C(N[C@H]1c2ccccc2C[C@H]1O)[C@H](Cc1cccc(O)c1)[C@@H](C(=O)NO)C1CN(C(=O)C(F)(F)F)C1` registered an IC50 in data set [1] of 3 nM. For the same compound, the Ki in [2] turned out to be 1490 nM.
In [1], `CC(C)(C)OC(=O)N1CCC([C@H](C(=O)O)C(Cc2cccc(O)c2)C(=O)N[C@H]2c3ccccc3C[C@H]2O)CC1` (stereo not given in full) showed a half-maximal inhibitory concentration (IC50) greater than 1000 nM. The Ki in [2] was greater than 2130 nM.
For `CCC(=O)N1CCC(C[C@H](C(=O)NO)[C@@H](Cc2cccc(O)c2)C(=O)N[C@H]2c3ccccc3C[C@H]2O)CC1`, in data set [1], it took 97 nM to reach half-maximal inhibition (IC50). The Ki in data set [2] is greater than 2130 nM.
In [1], `O=C(N[C@H]1c2ccccc2C[C@H]1O)[C@H](Cc1cccc(O)c1)[C@@H](C(=O)NO)C1CNC1` yielded an IC50 of 7 nM. In data set [2], this compound returned a Ki greater than 2130 nM.
`CC(C)(C)OC(=O)N1CCC([C@H](C(=O)NO)[C@@H](Cc2cccc(O)c2)C(=O)N[C@H]2c3ccccc3C[C@H]2O)CC1` came in with an IC50 in data set [1] of 19 nM. The same compound gave a Ki in [2] of 1300 nM.
Regarding `CCOC(=O)N1CCC([C@H](C(=O)NO)[C@@H](Cc2cccc(O)c2)C(=O)N[C@H]2c3ccccc3C[C@H]2O)CC1`, inhibition in data set [1] was half-maximal at 7 nM (IC50). In addition, the Ki in data set [2] was determined as 832 nM.
With `CC(=O)N1CCC(C(C(=O)NO)C(Cc2cccc(O)c2)C(=O)N[C@H]2c3ccccc3C[C@H]2O)CC1` (single isomer, unassigned), half-maximal inhibition in [1] (IC50) required 29 nM. The compound also showed a Ki in data set [2] of 1740 nM.
Consider `CCN1CCC(C(C(=O)NO)C(Cc2cccc(O)c2)C(=O)N[C@H]2c3ccccc3C[C@H]2O)CC1` (single isomer, unassigned), for which 45 nM corresponded to half-maximal inhibition in data set [1] (IC50). The Ki in [2] was greater than 2130 nM.
In [1], `CC(=O)N1CCC(CC(C(=O)NO)C(Cc2cccc(O)c2)C(=O)N[C@H]2c3ccccc3C[C@H]2O)CC1` (single isomer, unassigned) displayed an IC50 of 114 nM. For the same compound, the Ki in data set [2] was greater than 2130 nM.
